This passage reports IC50 results from patent US10759783B2, “Biaryl inhibitors of Bruton'S tyrosine kinase” (BIOGEN MA INC., priority 2013, dated 2020).

For this assay, the target named is T1, BTK enzyme (Homo sapiens, UniProt Q06187).
T1 construct: purchased Upstate 14-552
T1 sequence (Q06187 whole entry): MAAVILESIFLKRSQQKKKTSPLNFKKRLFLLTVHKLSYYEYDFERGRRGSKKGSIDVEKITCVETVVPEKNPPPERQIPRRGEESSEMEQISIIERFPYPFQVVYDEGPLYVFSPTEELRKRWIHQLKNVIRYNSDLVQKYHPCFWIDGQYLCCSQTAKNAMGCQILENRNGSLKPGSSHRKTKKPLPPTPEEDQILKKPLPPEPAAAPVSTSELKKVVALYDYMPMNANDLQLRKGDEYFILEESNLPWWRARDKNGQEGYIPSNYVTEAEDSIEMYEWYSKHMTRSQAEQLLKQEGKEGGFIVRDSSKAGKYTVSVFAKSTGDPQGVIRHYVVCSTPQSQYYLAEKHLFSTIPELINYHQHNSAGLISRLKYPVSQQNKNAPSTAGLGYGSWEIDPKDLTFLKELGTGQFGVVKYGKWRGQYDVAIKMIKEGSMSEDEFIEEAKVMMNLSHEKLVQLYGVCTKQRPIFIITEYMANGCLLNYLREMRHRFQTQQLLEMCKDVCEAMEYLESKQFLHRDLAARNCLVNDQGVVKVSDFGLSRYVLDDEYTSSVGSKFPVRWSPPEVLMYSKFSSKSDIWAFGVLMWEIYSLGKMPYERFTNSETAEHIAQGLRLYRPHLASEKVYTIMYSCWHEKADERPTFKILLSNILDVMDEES
The experiment in a line: In vitro BTK kinase assay: BTK-POLYGAT-LS assay. It counts as biochemical. The conditions noted are these: ATP 10 μM, read-out: IC50 (10uMATP). The protocol: The purpose of the BTK in vitro assay is to determine compound potency against BTK through the measurement of IC50. […] For a typical assay, a 24 μL aliquot of a ATP/peptide master mix (final concentration; ATP 10 μM, polyGAT 100 nM) in kinase buffer (10 mM Tris-HCl pH 7.5, 10 mM MgCl2, 200 μM Na3PO4, 5 mM DTT, 0.01% Triton X-100, and 0.2 mg/ml casein) is added to each well. […] The assay is incubated for 30 minutes before being stopped with 28 μL of a 50 mM EDTA solution. […] The plate is covered and incubated for 45 minutes at room temperature.
With `Cc1nnc(Nc2nccc(-c3ccc(CNC(=O)c4cnc(C(C)(C)C)s4)c(C)c3)n2)s1` [Example I-59, 2-(tert-butyl)-N-(2-methyl-4-(2-((5-methyl-1,3,4-thiadiazol-2-yl)amino)pyrimidin-4-yl)benzyl)thiazole-5-carboxamide], the half-inhibitory concentration (IC50) (as a rule, the concentration that gives 50% inhibition) was 0.01 to 0.099 µM.

As for `Cc1cc(-c2ccnc(N)n2)ccc1CNC(=O)c1cnc(C(F)(F)F)s1` [Example I-83, N-(4-(2-aminopyrimidin-4-yl)-2-methylbenzyl)-2-(trifluoromethyl)thiazole-5-carboxamide], the IC50 was 0.1 to 0.999 µM. Regarding `Cn1cc(Nc2cc(-c3ccc4c(c3)CCCC4NC(=O)c3cnc(C(C)(C)C)s3)ncn2)cn1` (stereo not shown) [Example I-92, 2-(tert-butyl)-N-(6-(6-((1-methyl-1H-pyrazol-4-yl)amino)pyrimidin-4-yl)-1,2,3,4-tetrahydronaphthalen-1-yl)thiazole-5-carboxamide], the IC50 lay within 0.01 to 0.099 µM. The result for `Cc1cc(-c2ccnc(Nc3ccc(N(C)C)cn3)n2)ccc1CNC(=O)c1cnc(C(C)(C)C)s1` [Example I-61, 2-(tert-butyl)-N-(4-(2-((5-(dimethylamino)pyridin-2-yl)amino)pyrimidin-4-yl)-2-methylbenzyl)thiazole-5-carboxamide] reads 0.01 to 0.099 µM; that for `Cc1cc(-c2ccnc(Nc3cnn(C)c3)n2)ccc1CNC(=O)N1CC(OC(C)(C)C)C1` [Example I-152, 3-(tert-butoxy)-N-(2-methyl-4-(2-((1-methyl-1H-pyrazol-4-yl)amino)pyrimidin-4-yl)benzyl)azetidine-1-carboxamide], < 0.01 µM. The result for `Cc1cc(-c2ccnc(Nc3cnn(C)c3)n2)ccc1CNC(=O)c1cc2c(s1)CCNC2C` (stereo not shown) [Example I-14, 4-methyl-N-(2-methyl-4-(2-((1-methyl-1H-pyrazol-4-yl)amino)pyrimidin-4-yl)benzyl)-4,5,6,7-tetrahydrothieno[3,2-c]pyridine-2-carboxamide] reads 0.01 to 0.099 µM. To `Cc1cc(-c2ccnc(NC3CCS(=O)(=O)CC3)n2)ccc1CNC(=O)c1cnc(C(C)(C)C)s1` [Example I-30, 2-(tert-butyl)-N-(4-(2-((1,1-dioxidotetrahydro-2H-thiopyran-4-yl)amino)pyrimidin-4-yl)-2-methylbenzyl)thiazole-5-carboxamide] belongs 1 to 10 µM.

In the case of `Cc1cc(-c2ccnc(N)n2)ccc1CNC(=O)c1cc2c(s1)CCNC2` [Example I-140, N-(4-(2-aminopyrimidin-4-yl)-2-methylbenzyl)-4,5,6,7-tetrahydrothieno[3,2-c]pyridine-2-carboxamide], the IC50 lay within 0.01 to 0.099 µM.

On to `Cc1cc(-c2ccnc(NC3CCN(C)CC3)n2)ccc1CNC(=O)c1cnc(C(C)(C)C)s1` [Example I-25, 2-(tert-butyl)-N-(2-methyl-4-(2-((1-methylpiperidin-4-yl)amino)pyrimidin-4-yl)benzyl)thiazole-5-carboxamide], for which the IC50 lay within 1 to 10 µM.

For `Cc1cc(-c2cnnc(Nc3cnn(C)c3)c2)ccc1CNC(=O)c1cnc(C(C)(C)C)s1` [Example I-114, 2-(tert-butyl)-N-(2-methyl-4-(6-((1-methyl-1H-pyrazol-4-yl)amino)pyridazin-4-yl)benzyl)thiazole-5-carboxamide], the 50% inhibitory concentration (IC50) was in the range of 0.1 to 0.999 µM. The result for `Cc1cc(-c2ccnc(N)n2)ccc1CNC(=O)c1cnc(C2CC2)s1` [Example I-85, N-(4-(2-aminopyrimidin-4-yl)-2-methylbenzyl)-2-cyclopropylthiazole-5-carboxamide] reads 0.01 to 0.099 µM; that for `Cc1cc(-c2ccnc(Nc3cnn(C)c3)n2)ccc1CNC(=O)c1cn2c(n1)CCCC2` [Example I-156, N-(2-Methyl-4-(2-((1-methyl-1H-pyrazol-4-yl)amino)pyrimidin-4-yl)benzyl)-5,6,7,8-tetrahydroimidazo[1,2-a]pyridine-2-carboxamide], 0.1 to 0.999 µM.

As to `Cc1cc(-c2ccnc(NC3CCOCC3)n2)ccc1CNC(=O)c1cnc(C(C)(C)C)s1` [Example I-26, 2-(tert-butyl)-N-(2-methyl-4-(2-((tetrahydro-2H-pyran-4-yl)amino)pyrimidin-4-yl)benzyl)thiazole-5-carboxamide], the IC50 was 1 to 10 µM. The result for `Cn1cc(Nc2cc(-c3ccc4c(c3)CCCC4NC(=O)c3cc4c(s3)CCOC4)ncn2)cn1` (stereo not shown) [Example I-94, N-(6-(6-((1-methyl-1H-pyrazol-4-yl)amino)pyrimidin-4-yl)-1,2,3,4-tetrahydronaphthalen-1-yl)-6,7-dihydro-4H-thieno[3,2-c]pyran-2-carboxamide] reads 0.1 to 0.999 µM; that for `Cc1cc(-c2ccnc(NC(C)c3ccncc3)n2)ccc1CNC(=O)c1cnc(C(C)(C)C)s1` (stereo not shown) [Example I-29, 2-(tert-butyl)-N-(2-methyl-4-(2-((1-(pyridin-4-yl)ethyl)amino)pyrimidin-4-yl)benzyl)thiazole-5-carboxamide], 1 to 10 µM.

As for `Cc1cc(-c2ccnc(N)n2)ccc1CNC(=O)c1cc2n(n1)CCCNC2` [Example I-72, N-(4-(2-aminopyrimidin-4-yl)-2-methylbenzyl)-5,6,7,8-tetrahydro-4H-pyrazolo[1,5-a][1,4]diazepine-2-carboxamide], the IC50 fell in the range of 1 to 10 µM.

Turning to `Cc1cc(-c2ccnc(Nc3cnn(C)c3)n2)ccc1C(C)NC(=O)c1cnc(C(C)(C)C)s1` (stereo not shown) [Example I-106, 2-(tert-butyl)-N-(1-(2-methyl-4-(2-((1-methyl-1H-pyrazol-4-yl)amino)pyrimidin-4-yl)phenyl)ethyl)thiazole-5-carboxamide], the concentration for half-maximal inhibition (IC50) was < 0.01 µM. The result for `Cc1cc(-c2ccnc(Nc3cnn(C)c3)n2)cnc1CNC(=O)c1cnc(C(C)(C)C)s1` [Example I-100, 2-(tert-butyl)-N-((3-methyl-5-(2-((1-methyl-1H-pyrazol-4-yl)amino)pyrimidin-4-yl)pyridin-2-yl)methyl)thiazole-5-carboxamide] reads 0.01 to 0.099 µM. To `COC(C)c1ncc(C(=O)NCc2ccc(-c3ccnc(N)n3)cc2C)s1` (stereo not shown) [Example I-87, N-(4-(2-aminopyrimidin-4-yl)-2-methylbenzyl)-2-(1-methoxyethyl)thiazole-5-carboxamide] belongs 0.1 to 0.999 µM; to `CNc1nccc(-c2ccc(CNC(=O)c3cnc(C(C)(C)C)s3)c(C)c2)n1` [Example I-33, 2-(tert-butyl)-N-(2-methyl-4-(2-(methylamino)pyrimidin-4-yl)benzyl)thiazole-5-carboxamide], 0.1 to 0.999 µM. To `Cc1cc(-c2ccnc(N[C@@H](C)C3CCCCC3)n2)ccc1CNC(=O)c1cnc(C(C)(C)C)s1` [Example I-28, (S)-2-(tert-butyl)-N-(4-(2-((1-cyclohexylethyl)amino)pyrimidin-4-yl)-2-methylbenzyl)thiazole-5-carboxamide] belongs > 10 µM; to `Cc1cc(-c2ccnc(N)n2)ccc1CNC(=O)c1cc2c(s1)CCOC2` [Example I-139, N-(4-(2-aminopyrimidin-4-yl)-2-methylbenzyl)-6,7-dihydro-4H-thieno[3,2-c]pyran-2-carboxamide], 0.01 to 0.099 µM; to `Cn1cc(Nc2nccc(-c3ccc(CNC(=O)c4cc5c(s4)CCOC5)c(F)c3)n2)cn1` [Example I-117, N-(2-fluoro-4-(2-((1-methyl-1H-pyrazol-4-yl)amino)pyrimidin-4-yl)benzyl)-6,7-dihydro-4H-thieno[3,2-c]pyran-2-carboxamide], 0.01 to 0.099 µM. Consider `Cc1cc(-c2nc(N)ncc2F)ccc1CNC(=O)c1cnc(C(C)(C)C)s1` [Example I-110, N-(4-(2-amino-5-fluoropyrimidin-4-yl)-2-methylbenzyl)-2-(tert-butyl)thiazole-5-carboxamide], for which the IC50 was in the range of 0.01 to 0.099 µM. Consider `Cc1cc(-c2ccnc(Nc3cnn(C)c3)n2)ccc1CNC(=O)c1cnoc1C` [Example I-18, 5-methyl-N-(2-methyl-4-(2-((1-methyl-1H-pyrazol-4-yl)amino)pyrimidin-4-yl)benzyl)isoxazole-4-carboxamide], for which the IC50 fell in the range of 0.1 to 0.999 µM. The result for `Cc1cc(-c2ccnc(Nc3cnn(C)c3)n2)ccc1CNC(=O)c1ccc(Cl)c(Cl)c1` [Example I-8, 3,4-dichloro-N-(2-methyl-4-(2-((1-methyl-1H-pyrazol-4-yl)amino)pyrimidin-4-yl)benzyl)benzamide] reads < 0.01 µM. The result for `Cc1cc(-c2cc(Nc3cc4n(n3)CCCN(C)C4)ncn2)ccc1CNC(=O)c1cnc(C(C)(C)C)s1` [Example I-147, 2-(tert-butyl)-N-(2-methyl-4-(6-((5-methyl-5,6,7,8-tetrahydro-4H-pyrazolo[1,5-a][1,4]diazepin-2-yl)amino)pyrimidin-4-yl)benzyl)thiazole-5-carboxamide] reads < 0.01 µM; that for `Cc1cc(-c2ccnc(Nc3cnn(C)c3)n2)ccc1C(CO)NC(=O)c1cc2c(s1)CCOC2` (stereo not shown) [Example I-109, N-(2-hydroxy-1-(2-methyl-4-(2-((1-methyl-1H-pyrazol-4-yl)amino)pyrimidin-4-yl)phenyl)ethyl)-6,7-dihydro-4H-thieno[3,2-c]pyran-2-carboxamide], 0.01 to 0.099 µM. For the compound `Cc1cc(-c2ccnc(N)n2)ccc1CNC(=O)c1ccc2c(c1)CCNC2` [Example I-77, N-(4-(2-aminopyrimidin-4-yl)-2-methylbenzyl)-1,2,3,4-tetrahydroisoquinoline-6-carboxamide], the half-maximal inhibitory concentration (IC50) lay in the range of 1 to 10 µM. For `CN(Cc1cc(-c2ccnc(N)n2)ccc1CNC(=O)c1cc2c(s1)CCCC2)C(=O)OC(C)(C)C` [Example I-144, tert-butyl 5-(2-aminopyrimidin-4-yl)-2-((4,5,6,7-tetrahydrobenzo[b]thiophene-2-carboxamido)methyl)benzyl(methyl)carbamate], the IC50 fell in the range of 0.01 to 0.099 µM. For `Cc1cc(-c2ccnc(N)n2)ccc1CNC(=O)c1nc2c(s1)CNCC2` [Example I-75, N-(4-(2-aminopyrimidin-4-yl)-2-methylbenzyl)-4,5,6,7-tetrahydrothiazolo[5,4-c]pyridine-2-carboxamide], the IC50 was 1 to 10 µM.
